Measured values from patent US20220169632A1, “METHODS AND MATERIALS FOR INCREASING OR MAINTAINING NICOTINAMIDE MONONUCLEOTIDE ADENYLYL TRANSFERASE-2 (NMNAT2) POLYPEPTIDE LEVELS” (University of Pittsburgh - Of the Commonwealth System of …, priority 2019, published 2022).

Test system: NMNAT2
Experiment: NMNAT2-Hibit nano-luciferase activity in stably transfected U87MG cells, various concentrations, 24 hours
Format: cell-based
Details: U87MG cells stably transfected with NMNAT2-Hibit luc plasmid
Experimental: Selected compounds were tested in vitro. U87MG cells were stably transfected with NMNAT2-Hibit luc plasmid. Cells were treated with a test compound at various concentrations for 24 hours. Cells were then collected and assayed for nano-luciferase activity.

SMILES	E: compound efficacy for NMNAT2 activation (concentration giving >25% increase in NMNAT2 luciferase activity)
COc1ccccc1CNC(=O)C1CCc2c(c3ccccc3n2Cc2cccc(F)c2)C1 (stereo not shown) [BC20225]	+ (“+” >25% increase in NMNAT2 luciferase activity at >25 μM.)
O=C(NCCc1ccccc1)C1CCc2c(c3ccccc3n2Cc2ccncc2)C1 (stereo not shown) [BC20284]	+ (“+” >25% increase in NMNAT2 luciferase activity at >25 μM.)
Cc1ccc(Cn2cc(C3CCN(Cc4ccccc4F)C(=O)C3)c3ccccc32)cc1 (stereo not shown) [BC20230]	++ (“++” >25% increase in NMNAT2 luciferase activity at >1 μM ≤25 μM.)
O=C(Cn1c2c(c3ccccc31)CC(C(=O)NCc1cccnc1)CC2)NCc1ccco1 (stereo not shown) [BC20242]	+ (“+” >25% increase in NMNAT2 luciferase activity at >25 μM.)
COCCN(CCNC(=O)[C@H]1C[C@@H]1c1cn(Cc2cc(C)ccc2C)c2ccccc12)Cc1ccco1 (racemic) [BC20365]	+ (“+” >25% increase in NMNAT2 luciferase activity at >25 μM.)
Cc1cccc(CNC(=O)c2ccc3c(c2)c(C)c(C)n3Cc2ccccc2C)c1 [BC20204]	++ (“++” >25% increase in NMNAT2 luciferase activity at >1 μM ≤25 μM.)
Cc1c(C)n(Cc2cccc(F)c2)c2ccc(C(=O)NCc3cccc(F)c3)cc12 [BC20112]	+++ (“+++” >25% increase in NMNAT2 luciferase activity at ≤1 μM.)
Cc1ccccc1Cn1cc(CCCC(=O)NCc2cccc(F)c2)c2ccccc21 [BC20152]	++ (“++” >25% increase in NMNAT2 luciferase activity at >1 μM ≤25 μM.)
Cc1ccccc1Cn1c(C)c(C)c2cc(C(=O)NCc3cccc(F)c3)ccc21 [BC20202]	++ (“++” >25% increase in NMNAT2 luciferase activity at >1 μM ≤25 μM.)
Cc1cccc(Cn2cc(CCCC(=O)NCc3ccco3)c3ccccc32)c1 [BC20163]	+++ (“+++” >25% increase in NMNAT2 luciferase activity at ≤1 μM.)
COc1cccc(CNC(=O)c2ccc3c(c2)c(C)c(C)n3Cc2cccc(F)c2)c1 [BC20116]	++ (“++” >25% increase in NMNAT2 luciferase activity at >1 μM ≤25 μM.)
Cc1ccc(C)c(Cn2c3c(c4ccccc42)CN(C(=O)NCCc2ccccc2)CC3)c1 [BC20254]	++ (“++” >25% increase in NMNAT2 luciferase activity at >1 μM ≤25 μM.)
CCCCN(CC)Cc1ccc(CNC(=O)C2CCCc3c2c2ccccc2n3Cc2ccc(C)cc2)o1 (stereo not shown) [BC20391]	++ (“++” >25% increase in NMNAT2 luciferase activity at >1 μM ≤25 μM.)
O=C(NCc1cccnc1)C1CCc2c(c3ccccc3n2Cc2ccncc2)C1 (stereo not shown) [BC20317]	+ (“+” >25% increase in NMNAT2 luciferase activity at >25 μM.)
Cc1cccc(CNC(=O)[C@H]2C[C@@H]2c2c(C)n(Cc3cc(C)ccc3C)c3ccccc23)c1 (racemic) [BC20303]	+ (“+” >25% increase in NMNAT2 luciferase activity at >25 μM.)
Cc1cccc(Cn2cc(CCCC(=O)NCc3cccnc3)c3ccccc32)c1 [BC20173]	++ (“++” >25% increase in NMNAT2 luciferase activity at >1 μM ≤25 μM.)
Cc1ccc(C)c(Cn2c(C(F)F)c(CCC(=O)NCc3ccncc3)c3ccccc32)c1 [BC20404]	++ (“++” >25% increase in NMNAT2 luciferase activity at >1 μM ≤25 μM.)
O=C1c2cccc3c2c(cn3Cc2cccc(F)c2)CCN1Cc1ccncc1 [BC20277]	+ (“+” >25% increase in NMNAT2 luciferase activity at >25 μM.)
Cc1ccc(C)c(Cn2c3c(c4ccccc42)CN(C(=O)NCC2CCCO2)CC3)c1 (stereo not shown) [BC20252]	+ (“+” >25% increase in NMNAT2 luciferase activity at >25 μM.)
